Laboratory results: patent US8350026B2, “VEGF-2 receptor and protein tyrosine kinase inhibitors and pharmaceutical use thereof” (Leo Pharma A/S, priority 2008, dated 2013)

Key:
[1] = Metabolic stability in human liver microsomes (HLM); format: in vitro ADME; parameters: CLint scaled: dose or concentration left out as unconfirmed; details: both sexes, pH 7.4; for CL/F at 0.5 μM: human liver microsomes 0.5 mg protein/mL, NADPH 1 mM, test compound 0.5 μM, 37° C., 30 minutes, read-out: HLM (apparent clearance)
Method: The metabolic stability is tested in human liver microsomes (In Vitro Technologies, pooled mixed sexes, 20 mg/mL); a subcellular fraction containing major drug-metabolizing phase I enzymes, including the cytochrome P450 (CYP) family and flavin monooxygenases (FMO). The apparent clearance (mL/min/kg) is calculated as a measurement of test compound elimination from the liver.
Procedure: A human microsome incubation mixture (0.5 mg microsomal protein/mL) in phosphate buffer (pH 7.4, 100 mM KH2PO4/10 mM MgCl2) is mixed with NADPH (1 mM). The mixture is pre-heated (7 min) to 37° C., test compound (0.5 μM) is added, and the mixture is incubated for 30 minutes. Incubations are run in duplicate and performed by a Tecan RSP. Samples are withdrawn at 0, 5, 10, 20, and 30 min and mixed with methanol containing internal standard to terminate all enzyme activity and precipitate proteins. […] Samples are analysed by LC-MS/MS.
Data analysis: The logarithm of the peak area ratios of test compound to internal standard versus incubation time is plotted in a graph. The rate constant (k) of test compound depletion is calculated from the linear part of the curve (Eq. 1) and the half-time (t1/2) is calculated from the slope (Eq. 2). Rate constant(k)(min^−1)=−slope Eq. 1 Half-time(t1/2)(min)=ln 2/k Eq. 2
Clint(mL/min/mg protein)=k/Protein concentration Eq. 3

VEGFR-2 (KDR) = molecular target: T1, VEGFR-2 (KDR) (Homo sapiens, UniProt P35968); assay: KDR Assay - HTRF KinEASE-TK (in vitro KDR inhibition); format: biochemical; details: ATP 100 μM, 15 minutes at rt
T1 construct: purchased Millipore 14-630
T1 sequence (P35968 790-1356 limits assumed): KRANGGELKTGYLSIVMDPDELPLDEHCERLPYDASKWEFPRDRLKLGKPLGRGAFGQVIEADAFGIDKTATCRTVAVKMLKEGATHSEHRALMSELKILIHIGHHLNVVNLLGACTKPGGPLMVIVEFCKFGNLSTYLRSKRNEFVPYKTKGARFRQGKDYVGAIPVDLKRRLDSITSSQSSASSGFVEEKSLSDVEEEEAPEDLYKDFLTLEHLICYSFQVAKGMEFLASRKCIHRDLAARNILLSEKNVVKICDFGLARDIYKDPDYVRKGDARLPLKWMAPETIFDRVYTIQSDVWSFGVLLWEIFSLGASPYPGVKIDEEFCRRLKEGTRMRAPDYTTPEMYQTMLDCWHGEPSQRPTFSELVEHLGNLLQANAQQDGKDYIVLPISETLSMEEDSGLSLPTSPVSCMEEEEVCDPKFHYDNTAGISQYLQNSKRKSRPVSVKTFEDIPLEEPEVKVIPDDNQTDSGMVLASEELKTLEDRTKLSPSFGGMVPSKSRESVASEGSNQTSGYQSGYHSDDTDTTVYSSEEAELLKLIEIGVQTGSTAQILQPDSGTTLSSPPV
Method: KDR Assay—HTRF KinEASE-TK
The compounds to be tested were dissolved in DMSO at 10 mM, stored at −20° C. and protected from light. The maximum concentration of DMSO in the in vitro assay was 0.75%. Control samples received the same concentration of solvent as the samples treated with the test compounds.
For the kinase assays, the HTRF KinEase™-TK kit (CisBio (#62TKOPEJ) was used. All components in HTRF KinEase™-TK kit were handled according to suppliers description. Briefly, DMSO stock solution of compounds (100% DMSO) were prediluted to 6% DMSO in 50 mM Hepesbuffer+0.05% BSA (Sigma Aldrich (A3294)) before transferring 1 μl to a 384-well Proxyplate (Perkin Elmer (#6008289) at RT. Kinase Substrate (2 μL, CisBio) was added to Proxyplate with compound. Enzyme mix (5 μL, Millipore (14-630)) with ATP (100 μM, Sigma Aldrich (A7699)), MgCl2 (5 mM; Sigma Aldrich M1028) and SEB (50 nM, CisBio) was added to start the reaction. The plates were incubated for 15 minutes at rt. The assay was stopped by addition of Detection mix (4 μL, CisBio) and plates were sealed and spun for 1 min at 1000 rpm. The plates were incubated in darkness over night at rt. The plates were read on an Envision (Perkin Elmer) plate reader. Signal from two wave lengths (665 and 620 nm) upon excitation at 340 nm in accordance to manufactures instructions. Briefly, fluorescence was measured for 400 μs between flashes after a delay time of 400 μs. The background measured in the absence of enzyme was subtracted from all samples. The molar concentrations that inhibited 50% of the maximal enzymatic activity (IC50) were calculated using a four-parameter sigmoid curve fit model of the dose-response curve, based on the following equation: y=((a−d)/(1+(x/c)^b))+d; where a is the minimum value, d is the maximum value, c is the IC50 value and […].

[2] = human, human liver microsomes, HLM assay reference compounds, read-out: intrinsic clearance values of HLM assay reference compounds

Row | Structure (SMILES) | CLint scaled at 0.5 μM [1, 2] | IC50 (VEGFR-2 (KDR)) | CL/F at 0.5 μM [1] | CLint scaled [1, 2]
1 | CC(=O)CC(c1ccccc1)c1c(O)c2ccccc2oc1=O (centres unmarked) [Warfarin, reference compound] | < 10 mL/min/kg |  |  | 
2 | CC(=O)Nc1cc(CNc2ccccc2C(=O)NCCC2CCCC2)ccn1 [Compound 102, 2-[(2-Acetylamino-pyridin-4-ylmethyl)-amino]-N-(2-cyclopentyl-ethyl)-benzamide] |  | 8 nM | > 200 mL/min/kg | 
3 | O=C(Nc1cc(CNc2ccccc2C(=O)NCCC2CCCC2)ccn1)c1ccco1 [Compound 105, Furan-2-carboxylic acid (4-{[2-(2-cyclopentyl-ethylcarbamoyl)-phenylamino]-methyl}-pyridin-2-yl)-amide] |  | 43 nM | > 200 mL/min/kg | 
4 | COC(=O)Nc1cc(CNc2ccccc2C(=O)NCCC(C)(C)C)ccn1 [Compound 101, (4-{[2-(3,3-Dimethyl-butylcarbamoyl)-phenylamino]-methyl}-pyridin-2-yl)-carbamic acid methyl ester] |  | 11 nM | 135 mL/min/kg | 
5 | CC(C)CCCNC(=O)c1ccccc1NCc1ccnc(NC(=O)c2ccco2)c1 [Compound 106, Furan-2-carboxylic acid (4-{[2-(4-methyl-pentylcarbamoyl)-phenylamino]-methyl}-pyridin-2-yl)-amide] |  | 17 nM | > 200 mL/min/kg | 
6 | CC(C)(C)CCNC(=O)c1ccccc1NCc1ccnc(NC(=O)c2ccco2)c1 [Compound 107, Furan-2-carboxylic acid (4-{[2-(3,3-dimethyl-butylcarbamoyl)-phenylamino]-methyl}-pyridin-2-yl)-amide] |  | 39 nM | > 200 mL/min/kg | 
7 | CCC(CC)CCNC(=O)c1ccccc1NCc1ccnc(NC(=O)c2ccco2)c1 [Compound 109, Furan-2-carboxylic acid (4-{[2-(3-ethyl-pentylcarbamoyl)-phenylamino]-methyl}-pyridin-2-yl)-amide] |  | 53 nM | > 200 mL/min/kg | 
8 | CCC(CC)CCNC(=O)c1ccccc1NCc1ccnc(NC(C)=O)c1 [Compound 103, 2-[(2-Acetylamino-pyridin-4-ylmethyl)-amino]-N-(3-ethyl-pentyl)-benzamide] |  | 19 nM | > 200 mL/min/kg | 
9 | Cc1ncc2n1-c1ccc(Cl)cc1C(c1ccccc1F)=NC2 [Midazolam, reference compound] |  |  |  | > 200 mL/min/kg
10 | O=C(Nc1cc(CNc2ccccc2C(=O)NCCC2=CCCCC2)ccn1)c1ccco1 [Compound 108, Furan-2-carboxylic acid (4-{[2-(2-cyclohex-1-enyl-ethylcarbamoyl)-phenylamino]-methyl}-pyridin-2-yl)-amide] |  | 44 nM | > 200 mL/min/kg | 
11 | CCC(CC)CCNC(=O)c1ccccc1NCc1ccnc(NC(=O)c2cnco2)c1 [Compound 104, Oxazole-5-carboxylic acid (4-{[2-(3-ethyl-pentylcarbamoyl)-phenylamino]-methyl}-pyridin-2-yl)-amide] |  | 15 nM | 120 mL/min/kg | 
